{"source": "patent US12168781B2", "about": "“Production method for T cells or NK cells, medium for culturing T cells or NK cells, method for culturing T cells or NK cells, method for maintaining undifferentiated state of undifferentiated T cells, and growth-accelerating agent for T cells or NK cells” (KIRIN HOLDINGS KABUSHIKI KAISHA, priority 2018, dated 2024)", "tested_on": "T-iPS-T cells", "experiment": "Long-term culturing of T-iPS-T cells obtained by differentiation induction using a feeder, trypan blue count", "format": "cell-based, human", "settings": "1 μM, FIG. 15(B)", "description": "Further, evaluation of T-iPS-T cells obtained by differentiation induction using a feeder was also performed. The T-iPS-T cells (1,500 cells/well) obtained by differentiation induction in Example 1 were seeded, and stimulated with CD3/CD28 Dynabeads in the same manner as in Example 4, and berbamine (BBM) at 1 μM or MilliQ water that is a solvent for the compound as a control was added thereto, and the cells were cultured in the same culture medium as in Example 6. The cells were collected on day 14, day 28, and day 42, and the number of viable cells was counted by a trypan blue method, and the cells were restimulated and cultured. The cells were collected on day 56, and the number of viable cells was counted."}
{"smiles": "COc1cc2c3cc1Oc1c(OC)c(OC)cc4c1[C@@H](Cc1ccc(O)c(c1)Oc1ccc(cc1)C[C@@H]3N(C)CC2)N(C)CC4", "note": "[berbamine]", "values": [{"measurement": "period for which the cells could be cultured", "setting": "restimulated on day 14, 28, 42, MilliQ water control could not be cultured after day 28", "result": 56, "unit": "days"}, {"measurement": "proliferation of the cells in long-term culturing", "setting": "vs MilliQ water", "result": "enhancement of the proliferation of the cells"}]}
